The text below walks through data of patent US7329653B2, “Cyclohexylphenyl vasopressin agonists” (Wyeth, priority 2001, dated 2008).

One data set addresses T1, vasopressin V2 receptors (Rattus norvegicus, UniProt Q00788).
T1 construct: Male or female normotensive Sprague-Dawley rats; tissue Charles River Laboratories, Inc; host or cells: whole animal (Sprague-Dawley rat; kidney collecting ducts per the background)
Nature of the data set: Vasopressin V2 agonist effects in normal conscious water-loaded rats. Type of data set: in vivo. The note with it: vs control; oral dose of 10 mg/Kg; urine collected for four hours; Sprague-Dawley (CD) rats. The text has this: Vasopressin V2 Agonist Effects of Test Compounds in Normal Conscious Water-Loaded Rats
Male or female normotensive Sprague-Dawley rats (Charles River Laboratories, Inc., Kingston, N.Y.) of 350-500 g body weight were supplied with standard rodent diet (Purina Rodent Lab. Chow 5001) and water ad libitum. On the day of test, rats were placed individually into metabolic cages equipped with devices to separate the feces from the urine and containers for collection of urine. A test compound or a reference agent was given at an oral dose of 10 mg/Kg in a volume of 10 mL/Kg. The vehicle used was 2.5% preboiled corn starch in 20% dimethylsulfoxide (DMSO). Thirty minutes after dosing the test compound, rats were gavaged with water at 30 mL/Kg into the stomach using a feeding needle. During the test, rats were not provided with water or food. Urine was collected for four hours after dosing of the test compound. At the end of four hours, urine volume was measured. Urinary osmolality was determined using a Fiske One-Ten Osmometer (Fiske Associates, Norwood, Mass., 02062) or an Advanced CRYOMATIC Osmometer, Model 3C2 (Advanced Instruments, Norwood, Mass.). Determinations of Na^+, K^+ and Cl^− ion were carried out using ion specific electrodes in a Beckman SYNCHRON EL-ISE Electrolyte System analyzer. The urinary osmolality should increase proportionally. In the screening test, two rats were used for each compound. If the difference in the urine volume of the two rats was greater than 50%, a third rat was used.

T1 sequence (Q00788 whole entry): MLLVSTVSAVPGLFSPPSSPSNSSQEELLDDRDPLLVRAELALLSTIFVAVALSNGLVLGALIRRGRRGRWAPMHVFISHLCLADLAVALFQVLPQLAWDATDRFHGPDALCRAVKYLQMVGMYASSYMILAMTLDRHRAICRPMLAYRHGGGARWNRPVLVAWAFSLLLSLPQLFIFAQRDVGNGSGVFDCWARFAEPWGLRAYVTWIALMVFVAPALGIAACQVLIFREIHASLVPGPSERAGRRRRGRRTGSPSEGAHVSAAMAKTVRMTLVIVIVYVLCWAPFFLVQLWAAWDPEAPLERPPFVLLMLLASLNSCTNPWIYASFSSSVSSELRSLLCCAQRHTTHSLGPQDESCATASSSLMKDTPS

`O=C(c1ccc(C2CCCCC2)cc1)N1CCCCc2sccc21` [Example 8, (4-Cyclohexyl-phenyl)-(5,6,7,8-tetrahydro-thieno[3,2-b]azepin-4-yl)-methanone] registered a melting point of 145 to 148 °C. On the same count and under the same terms, the same measure for `O=C(c1ccc(C2CCCCC2)cc1)N1Cc2ccccc2Nc2ccccc21` [Example 5, (4-Cyclohexyl-phenyl)-(5,11-dihydro-10H-dibenzo[b,e][1,4]diazepin-10-yl)methanone]: 175 to 176 °C. `O=C(c1ccc(C2CCCCC2)cc1)N1Cc2cccnc2Nc2ccccc21` [Example 2, (4-Cyclohexyl-phenyl)-(5,11-dihydro-pyrido[2,3-b][1,5]benzodiazepin-6-yl)-methanone]: the melting point was in the range of 230 to 233 °C. Further, on vasopressin V2 receptors, the “Urinary Osmolality (% increase)” value is 51 % increase and the “Urine Volume (% decrease)” value is on record as 48 % decrease. In the case of `CCN1c2ccccc2N(C(=O)c2ccc(C3CCCCC3)cc2)Cc2cccnc21` [Example 4, (4-Cyclohexyl-phenyl)-(5,11-dihydro-11-ethyl-5H-pyrido[2,3-b][1,5]benzodiazepin-6-yl)-methanone], at vasopressin V2 receptors, the “Urinary Osmolality (% increase)” value is on record as 132 % increase and the “Urine Volume (% decrease)” value is reported as 64 % decrease.

The compound `CN1c2ccccc2CN(C(=O)c2ccc(C3CCCCC3)cc2)c2ccccc21` [Example 6, (4-Cyclohexyl-phenyl)-(5,11-dihydro-5-methyl-10H-dibenzo[b,e][1,4]diazepin-10-yl)-methanone] showed a melting point of 111 to 112 °C. For `CN1c2ccccc2N(C(=O)c2ccc(C3CCCCC3)cc2)Cc2cccnc21` [Example 3, (4-Cyclohexyl-phenyl)-(5,11-dihydro-11-methyl-5H-pyrido[2,3-b][1,5]benzodiazepin-6-yl)-methanone], at vasopressin V2 receptors, the “Urinary Osmolality (% increase)” value amounted to 129 % increase and the “Urine Volume (% decrease)” value is given as 51 % decrease. Consider `O=C(c1ccc(C2CCCCC2)cc1)N1Cc2cccn2Cc2ccccc21` [Example 1, 10-(4-Cyclohexyl-benzoyl)-10,11-dihydro-5H-pyrrolo[2,1-c][1,4]benzodiazepine], for which the melting point was in the range of 127 to 129 °C. For the same compound, on vasopressin V2 receptors, the “Urinary Osmolality (% increase)” value came to 232 % increase and the “Urine Volume (% decrease)” value amounted to 61 % decrease. In turn, `O=C(c1ccc(C2CCCCC2)cc1)N1Cc2cccn2Cc2ncccc21` [Example 7, (4-Cyclohexyl-phenyl)-(4H,10H-3a,5,9-triaza-benzo[f]azulen-9-yl)-methanone] had a melting point of 150 to 152 °C.
